The values below come from publication PMC4263427 (Biochemistry, 2014).

The assay concerns the target T1, class II fructose 1,6-bisphosphate aldolase (SaFBA) (Staphylococcus aureus, UniProt Q5HE75).
T1 sequence (Q5HE75 1-286): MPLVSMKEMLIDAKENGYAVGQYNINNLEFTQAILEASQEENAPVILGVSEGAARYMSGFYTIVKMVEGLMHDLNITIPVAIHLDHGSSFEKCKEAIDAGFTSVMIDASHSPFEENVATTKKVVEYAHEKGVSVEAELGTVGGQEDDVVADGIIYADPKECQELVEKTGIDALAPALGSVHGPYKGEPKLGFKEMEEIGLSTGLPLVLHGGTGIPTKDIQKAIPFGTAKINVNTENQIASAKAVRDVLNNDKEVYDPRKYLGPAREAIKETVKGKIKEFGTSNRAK
The assay can be described thus: coupled fluorescence. Type of assay: biochemical.

In the case of `O=C(O)c1ccc2cccc(O)c2n1` [HCA, 8-hydroxyquinoline-2-carboxylic acid], the inhibition constant Ki was 96 ± 22 µM.

As a reminder, the Ki is the equilibrium dissociation constant of an inhibitor or competing ligand from its target. A lower Ki goes with higher affinity.
